The values that follow come from patent publication US20150119373A1, “NOVEL BETULINIC ACID DERIVATIVES AS HIV INHIBITORS” (HETERO RESEARCH FOUNDATION, priority 2012, published 2015).

A short description of data set [1]: Cyto-toxicity assay (MTT) in MT2 cells without virus. It is filed as cell-based. The following applies: human. On the procedure:
For cyto-toxicity assay the same amount of MT2 cells as in antiviral assay without virus was added to the 96 well plates. The cyto-toxicity was measured using MTT reagent in parallel with p24 estimation. The percent viability is calculated in comparison with vehicle control.

Data set [2] is described as follows: Single dose oral pharmacokinetic study in mice. It is filed as in vivo. The following applies: for Cmax / Tmax / AUC(0-t) / AUC(0-inf): mouse, plasma. On the procedure: The test item was administered through oral route to animals (rat/mice) at 30 mg/kg dose in a suitable vehicle at 10 ml/kg dose volume. Blood samples (˜50 uL at each time point) were collected from retro-orbital plexus using K3 EDTA as anticoagulant in eppendorf tubes at defined time intervals under light ether anesthesia. The samples were centrifuged at 3500×g to separate plasma and stored at −80° C. until analysis.
Sample analysis: Test samples were analyzed using LC-MS-MS after developing fit-for-purpose method for each of test compound.

The next data set has as its system HIV-1 strain 92HT599. The data set is described as follows: Antiviral activity: p24 estimation in MT2 cells infected with HIV-1 strain 92HT599. The class given is cell-based. The following applies: for inhibition at 0.1 µM: read-out: Antiviral activity % inhibition 100 nM; for inhibition at 1 µM: read-out: Antiviral activity % inhibition 1000 nM. The method, boiled down:
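Infection of MT2 cells used 10 TCID50/30000 cells, with compound present at ≤1% DMSO for ~96 h. p24 in well aliquots was quantified by kit. Percent inhibition is relative to vehicle controls.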

Setting [3] is: Oral PK @ 30 mg/ kg dose in mice (Table 6).
Where [4] appears, read: Oral PK @ 30 mg/ kg dose in mice (Table 6), read-out: AUCt.
Setting [5] is: Human immunodeficiency virus 1, MT2, 96 h.
The mark [6] stands for this setting: Human immunodeficiency virus 1, 100 nM, MT2 cells, HIV-1 92HT599, ~96 hours, p24.
Where [7] appears, read: Human immunodeficiency virus 1, 1000 nM, MT2 cells, HIV-1 92HT599, ~96 hours, p24.
[8] abbreviates: Mice oral PK @30 mg/kg (Table 5).

As usually defined, the viability is a read-out of living cells in per cent, often relative to untreated cells. The term Cmax denotes the highest concentration seen after dosing. One may read the Tmax as the time from dosing to the highest level. A word on the inhibition: it is the drop in the measured response relative to a control, in per cent. One may read the AUC(0-inf) as the area under the concentration-time curve extrapolated to infinity. The low end stands for low exposure, the high end for high exposure.

Read-outs that look alike come from different tables or passages of the source.

As to `COC1CCN(C(=O)[C@]23CC[C@@H](C4(C)CC4)[C@@H]2[C@H]2CC[C@@H]4[C@@]5(C)CC[C@H](OC(=O)[C@H]6C[C@@H](C(=O)O)C6(C)C)C(C)(C)[C@@H]5CC[C@@]4(C)[C@]2(C)CC3)CC1` [Example 29], in data set [1] (100 nM, MT2 cells, MTT, read-out: Cytotoxicity % viability 100 nM), the viability at 100 nM was 81%. In data set [1] (1000 nM, MT2 cells, MTT, read-out: Cytotoxicity % viability 1000 nM), the viability at 1000 nM stood at 77%. For the same compound, in data set [2] (setting [3]), the Tlast is 48 h, the Cmax was found to be 11700 ng/mL and the Tmax is 16 h. The AUC(0-t) in data set [2] (setting [4]) was determined as 428 µg·h/mL. Besides, in the data set on HIV-1 strain 92HT599 (setting [5]), the inhibition at 0.1 µM is 95% and the inhibition at 1 µM is 99%.

In data set [1], `CC(C)(CC(=O)O[C@H]1CC[C@]2(C)[C@H]3CC[C@@H]4[C@H]5[C@H](C6(C)CC6)CC[C@]5(C(=O)N5CCC(C#N)(c6ccccc6)CC5)CC[C@@]4(C)[C@]3(C)CC[C@H]2C1(C)C)C(=O)O` [Example 56, 4-((1R,3aS,5aR,5bR,7aR,9S,11aR,11bR,13aR,13bR)-3a-(4-cyano-4-phenylpiperidine-1-carbonyl)-5a,5b,8,8,11a-pentamethyl-1-(1-methylcyclopropyl)icosahydro-1H-cyclopenta[a]chrysen-9-yloxy)-2,2-dimethyl-4-oxobutanoic acid] returned a viability at 100 nM of 83% and a viability at 1000 nM of 80%. For the same compound, in data set [2] (setting [3]), the Tlast was 24 h, the AUC(0-inf) worked out at 185 µg·h/mL, the peak level (Cmax) was 5900 ng/mL and the time to peak (Tmax) turned out to be 7 h. Moreover, the AUC(0-t) in data set [2] (setting [4]) is 95.5 µg·h/mL. Moreover, the inhibition at 0.1 µM in the data set on HIV-1 strain 92HT599 (setting [6]) is 76%. Further, in the data set on HIV-1 strain 92HT599 (setting [7]), the inhibition at 1 µM is 99%.

As to `Cc1nnc([C@H]2C[C@@H](NC(=O)[C@]34CC[C@@H](C5(C)CC5)[C@@H]3[C@H]3CC[C@@H]5[C@@]6(C)CC[C@H](OC(=O)[C@H]7C[C@@H](C(=O)O)C7(C)C)C(C)(C)[C@@H]6CC[C@@]5(C)[C@]3(C)CC4)C2(C)C)o1` [Example 17, (1R,3S)-3-(((1R,3aS,5aR,5bR,7aR,9S,11aR,11bR,13aR,13bR)-3a-((1R,3S)-2,2-dimethyl-3-(5-methyl-1,3,4-oxadiazol-2-yl)cyclobutylcarbamoyl)-5a,5b,8,8,11a-pentamethyl-1-(1-methylcyclopropyl)icosahydro-1H-cyclopenta[a]chrysen-9-yloxy)carbonyl)-2,2-dimethyl cyclobutanecarboxylicacid], in data set [1], the viability at 100 nM is 77% and the viability at 1000 nM stood at 89%. In data set [2] (setting [8]), the peak level (Cmax) was 5940 ng/mL and the time to peak (Tmax) came to 4.5 h. The AUC(0-t) in data set [2] (Mice oral PK @30 mg/kg (Table 5), read-out: AUC 0-t) amounted to 88.3 µg·h/mL. Further, the inhibition at 0.1 µM in the data set on HIV-1 strain 92HT599 (setting [6]) is 100%. For the same compound, in the data set with HIV-1 strain 92HT599 (setting [7]), the inhibition at 1 µM is 100%.

In data set [1], `CC(C)(CC(=O)O[C@H]1CC[C@]2(C)[C@H]3CC[C@@H]4[C@H]5[C@H](C6(C)CC6)CC[C@]5(C(=O)N5CCOCC5)CC[C@@]4(C)[C@]3(C)CC[C@H]2C1(C)C)C(=O)O` [Example 27, 2,2-dimethyl-4-oxo-4-(((1R,3aS,5aR,5bR,7aR,9S,11aR,1bR,13aR,13bR)-5a,5b,8,8,11a-pentamethyl-1-(1-methylcyclopropyl)-3a-(morpholine-4-carbonyl)icosahydro-1H-cyclopenta[a]chrysen-9-yl)oxy)butanoic acid] showed a viability at 100 nM of 100% and a viability at 1000 nM of 94%. For the same compound, in data set [2] (setting [3]), the Tlast was 48 h, the AUC(0-inf) was found to be 106 µg·h/mL, the Cmax was found to be 7000 ng/mL and the Tmax was determined as 3.5 h. Moreover, in data set [2] (setting [4]), the AUC(0-t) is 101 µg·h/mL. Also, in the data set with HIV-1 strain 92HT599 (setting [6]), the inhibition at 0.1 µM is 94%. The inhibition at 1 µM in the data set with HIV-1 strain 92HT599 (setting [7]) is 88%.
